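These data come from cells grown in 96-well plates and exposed to compound for 48 hours at five concentrations. Here, GI50 denotes the concentration required for 50% inhibition of growth.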 Calls of active or inactive are those of the source. Rule as the data show it: active = GI50 up to about 1.1 µM and inactive = higher.
Experiments:
Test in all cases: growth of human tumour cells (NCI), 48 h
HL-60 = tested on: HL-60
HT-29 = tested on: HT-29
NCI-H522 = tested on: NCI-H522
UACC-62 = tested on: UACC-62
HOP-92 = tested on: HOP-92
A549 = tested on: A549
MDA-MB-435 = tested on: MDA-MB-435
OVCAR-8 = tested on: OVCAR-8
OVCAR-5 = tested on: OVCAR-5
RXF 393 = tested on: RXF 393
SK-OV-3 = tested on: SK-OV-3
EKVX = tested on: EKVX
DU-145 = tested on: DU-145
KM12 = tested on: KM12
UACC-257 = tested on: UACC-257
TK-10 = tested on: TK-10
Malme-3M = tested on: Malme-3M
SK-MEL-28 = tested on: SK-MEL-28
NCI-H23 = tested on: NCI-H23
IGROV-1 = tested on: IGROV-1
MDA-MB-231 = tested on: MDA-MB-231
HOP-62 = tested on: HOP-62
SN12C = tested on: SN12C
MDA-N = tested on: MDA-N
Hs-578T = tested on: Hs-578T
M14 = tested on: M14
NCI-H226 = tested on: NCI-H226
786-0 = tested on: 786-0
SK-MEL-2 = tested on: SK-MEL-2
T47D = tested on: T47D
SF-268 = tested on: SF-268
SW-620 = tested on: SW-620
A498 = tested on: A498
SR = tested on: SR
U-251 = tested on: U-251
PC-3 = tested on: PC-3
HCT-15 = tested on: HCT-15
SK-MEL-5 = tested on: SK-MEL-5
RPMI-8226 = tested on: RPMI-8226
SF-539 = tested on: SF-539
NCI/ADR-RES = tested on: NCI/ADR-RES
K562 = tested on: K562
CAKI-1 = tested on: CAKI-1
HCT-116 = tested on: HCT-116
OVCAR-4 = tested on: OVCAR-4
BT-549 = tested on: BT-549
SF-295 = tested on: SF-295
MCF7 = tested on: MCF7
SNB-19 = tested on: SNB-19
MOLT-4 = tested on: MOLT-4
COLO 205 = tested on: COLO 205
NCI-H460 = tested on: NCI-H460
LOX IMVI = tested on: LOX IMVI
UO-31 = tested on: UO-31
OVCAR-3 = tested on: OVCAR-3
ACHN = tested on: ACHN
CCRF-CEM = tested on: CCRF-CEM
SNB-75 = tested on: SNB-75
HCC 2998 = tested on: HCC 2998

Measured: GI50

O=C(CSc1nc2ccccc2s1)c1sc2sc3ccccc3[n+]2c1[O-]
> 100 µM: HCT-15
inactive: HL-60 > 100 µM | HT-29 > 100 µM | NCI-H522 > 100 µM | UACC-62 > 100 µM | HOP-92 > 100 µM | A549 > 100 µM | MDA-MB-435 > 100 µM | OVCAR-8 > 100 µM | OVCAR-5 > 100 µM | RXF 393 > 100 µM | SK-OV-3 > 100 µM | EKVX > 100 µM | DU-145 > 100 µM | KM12 > 100 µM | UACC-257 > 100 µM | TK-10 > 100 µM | Malme-3M > 100 µM | SK-MEL-28 > 100 µM | NCI-H23 > 100 µM | IGROV-1 > 100 µM | MDA-MB-231 26.9 µM | HOP-62 > 100 µM | SN12C > 100 µM | MDA-N > 100 µM | Hs-578T > 100 µM | M14 > 100 µM | NCI-H226 > 100 µM | 786-0 > 100 µM | SK-MEL-2 > 100 µM | T47D > 100 µM | SF-268 > 100 µM | SW-620 > 100 µM | A498 > 100 µM | SR > 100 µM | U-251 > 100 µM | PC-3 > 100 µM | SK-MEL-5 > 100 µM | RPMI-8226 > 100 µM | SF-539 > 100 µM | NCI/ADR-RES > 100 µM | K562 > 100 µM | CAKI-1 > 100 µM | HCT-116 > 100 µM | OVCAR-4 > 100 µM | BT-549 > 100 µM | SF-295 > 100 µM | MCF7 > 100 µM | SNB-19 > 100 µM | MOLT-4 > 100 µM | COLO 205 > 100 µM | NCI-H460 > 100 µM | LOX IMVI > 100 µM | UO-31 > 100 µM | OVCAR-3 > 100 µM | ACHN > 100 µM

COC(=O)n1c(=O)n(-c2ccccc2)c(=O)n1C(=O)OC
> 100 µM: HCT-15
inactive: HL-60 > 100 µM | HT-29 > 100 µM | NCI-H522 > 100 µM | UACC-62 > 100 µM | CCRF-CEM > 100 µM | A549 > 100 µM | MDA-MB-435 > 100 µM | OVCAR-8 > 100 µM | OVCAR-5 > 100 µM | RXF 393 > 100 µM | SK-OV-3 > 100 µM | EKVX > 100 µM | DU-145 > 100 µM | KM12 > 100 µM | UACC-257 > 100 µM | TK-10 > 100 µM | Malme-3M > 100 µM | SK-MEL-28 > 100 µM | NCI-H23 > 100 µM | IGROV-1 > 100 µM | MDA-MB-231 > 100 µM | SN12C > 100 µM | MDA-N > 100 µM | Hs-578T > 100 µM | M14 > 100 µM | NCI-H226 > 100 µM | SNB-75 51.2 µM | 786-0 > 100 µM | SK-MEL-2 > 100 µM | T47D > 100 µM | SF-268 > 100 µM | SW-620 > 100 µM | A498 > 100 µM | HCC 2998 > 100 µM | SR > 100 µM | U-251 > 100 µM | PC-3 > 100 µM | SK-MEL-5 > 100 µM | RPMI-8226 > 100 µM | SF-539 > 100 µM | NCI/ADR-RES > 100 µM | K562 > 100 µM | CAKI-1 > 100 µM | HCT-116 > 100 µM | OVCAR-4 > 100 µM | BT-549 > 100 µM | MCF7 > 100 µM | SNB-19 > 100 µM | MOLT-4 > 100 µM | COLO 205 > 100 µM | NCI-H460 > 100 µM | LOX IMVI > 100 µM | UO-31 > 100 µM | OVCAR-3 > 100 µM

c1ccc2c(c1)nc1n2CSCC1
> 100 µM: HCT-15
inactive: HL-60 > 100 µM | HT-29 > 100 µM | UACC-62 > 100 µM | HOP-92 > 100 µM | CCRF-CEM > 100 µM | A549 > 100 µM | MDA-MB-435 > 100 µM | OVCAR-8 > 100 µM | OVCAR-5 > 100 µM | RXF 393 > 100 µM | SK-OV-3 > 100 µM | EKVX > 100 µM | DU-145 > 100 µM | KM12 > 100 µM | UACC-257 > 100 µM | TK-10 > 100 µM | SK-MEL-28 > 100 µM | NCI-H23 > 100 µM | IGROV-1 > 100 µM | MDA-MB-231 > 100 µM | HOP-62 > 100 µM | SN12C > 100 µM | MDA-N > 100 µM | Hs-578T > 100 µM | M14 > 100 µM | NCI-H226 > 100 µM | SNB-75 > 100 µM | 786-0 > 100 µM | SK-MEL-2 > 100 µM | T47D > 100 µM | SF-268 > 100 µM | SW-620 > 100 µM | A498 > 100 µM | HCC 2998 > 100 µM | SR > 100 µM | U-251 > 100 µM | PC-3 > 100 µM | SK-MEL-5 > 100 µM | RPMI-8226 > 100 µM | SF-539 > 100 µM | NCI/ADR-RES > 100 µM | K562 > 100 µM | CAKI-1 > 100 µM | HCT-116 > 100 µM | OVCAR-4 > 100 µM | BT-549 > 100 µM | SF-295 > 100 µM | MCF7 > 100 µM | SNB-19 > 100 µM | MOLT-4 > 100 µM | COLO 205 > 100 µM | NCI-H460 > 100 µM | LOX IMVI > 100 µM | UO-31 > 100 µM | OVCAR-3 > 100 µM | ACHN > 100 µM

Cc1c(C)c(S(=O)(=O)N(CCCN)OCCCN)c(C)c2c1OC(C)(C)C2
inactive: HT-29 45.8 µM | NCI-H522 15.5 µM | UACC-62 51.4 µM | CCRF-CEM 30 µM | A549 44.1 µM | MDA-MB-435 53.7 µM | OVCAR-8 80.5 µM | OVCAR-5 23.5 µM | RXF 393 15.2 µM | SK-OV-3 39.4 µM | EKVX 16.3 µM | DU-145 30.6 µM | KM12 17.6 µM | UACC-257 34.3 µM | TK-10 45.5 µM | Malme-3M 18.5 µM | SK-MEL-28 83.6 µM | NCI-H23 29.8 µM | IGROV-1 22.9 µM | MDA-MB-231 14.8 µM | HOP-62 35.6 µM | SN12C 61.1 µM | MDA-N 19 µM | Hs-578T 18.8 µM | M14 18.1 µM | NCI-H226 72.1 µM | SNB-75 17.3 µM | 786-0 25.5 µM | SK-MEL-2 9.64 µM | T47D 32.6 µM | SF-268 27.6 µM | SW-620 27.5 µM | A498 18.8 µM | HCC 2998 19.5 µM | SR 34.8 µM | U-251 17.3 µM | PC-3 17.7 µM | SK-MEL-5 30.8 µM | RPMI-8226 42.3 µM | NCI/ADR-RES > 100 µM | K562 35 µM | CAKI-1 34.4 µM | HCT-116 35.3 µM | OVCAR-4 30.7 µM | BT-549 30.5 µM | SF-295 29.8 µM | MCF7 20.5 µM | SNB-19 15.4 µM | MOLT-4 20.4 µM | COLO 205 17.1 µM | NCI-H460 36.8 µM | LOX IMVI 19.6 µM | UO-31 33.4 µM | OVCAR-3 21.4 µM | ACHN 29.6 µM
68.7 µM: HCT-15

COC(OC)[C@@H]1OC[C@H](n2ccc(=O)[nH]c2=O)[C@H]1O
> 100 µM: HCT-15
inactive: HT-29 > 100 µM | UACC-62 > 100 µM | HOP-92 > 100 µM | CCRF-CEM > 100 µM | A549 > 100 µM | MDA-MB-435 > 100 µM | OVCAR-5 > 100 µM | RXF 393 66.4 µM | SK-OV-3 > 100 µM | EKVX > 100 µM | DU-145 > 100 µM | KM12 > 100 µM | UACC-257 > 100 µM | TK-10 > 100 µM | SK-MEL-28 > 100 µM | NCI-H23 > 100 µM | IGROV-1 > 100 µM | MDA-MB-231 > 100 µM | HOP-62 > 100 µM | SN12C > 100 µM | MDA-N > 100 µM | Hs-578T > 100 µM | M14 > 100 µM | NCI-H226 > 100 µM | SNB-75 > 100 µM | 786-0 > 100 µM | SK-MEL-2 > 100 µM | T47D > 100 µM | SF-268 > 100 µM | SW-620 > 100 µM | A498 > 100 µM | HCC 2998 > 100 µM | SR > 100 µM | U-251 > 100 µM | PC-3 > 100 µM | SK-MEL-5 > 100 µM | RPMI-8226 > 100 µM | SF-539 > 100 µM | NCI/ADR-RES > 100 µM | K562 > 100 µM | CAKI-1 > 100 µM | HCT-116 > 100 µM | OVCAR-4 > 100 µM | BT-549 > 100 µM | SF-295 > 100 µM | MCF7 > 100 µM | SNB-19 67.3 µM | MOLT-4 > 100 µM | COLO 205 > 100 µM | NCI-H460 > 100 µM | LOX IMVI > 100 µM | UO-31 > 100 µM | OVCAR-3 > 100 µM | ACHN > 100 µM

Source: ChEMBL document CHEMBL1201862, “PubChem BioAssay data set” (2004)
